Source: patent US20060211651A1, “Persulfated oligosaccharide acting on selectins and chemokine” (Taisho Pharmaceutical Co., Ltd., priority 2002, published 2006)

Assays:
L-selectin-Ig = molecular target: T1, L-selectin-Ig (Homo sapiens, UniProt P14151); assay: Binding inhibition assay (ELISA), biotinylated versican to L-selectin-Ig, various concentrations; conditions: dose-dependent, FIG. 2 panel A
T1 construct: purchased R & D Systems Inc
Procedure: (§1) Inhibition assay of binding between versican and each of L-selectin, P-selectin and CD44 was performed as follows. First, each well on a 96 well flat bottom microtiter plate (Coster EIA/RIA plate No. 3690) was coated with L-selectin-Ig (3 μg/ml), P-selectin-Ig (4 μg/ml) or CD44-Ig (0.25 μg/ml) by a conventional procedure. […] The plate was incubated at room temperature for 2 hours. Thereafter, the plate was washed with the buffer A, and enzyme-linked immunosorbent assay was performed in the same manner as described in Kawashima, H. et al. [J. Biol. Chem., 275, 35448-35456 (2000)]. Binding was determined by measuring absorbance at 620 nm using alkaline phosphatase-conjugated streptavidin and Blue Phos™ substrate.

P-selectin-Ig = assay: Binding inhibition assay (ELISA), biotinylated versican to P-selectin-Ig, various concentrations; conditions: dose-dependent, FIG. 2 panel B
Procedure: as §1

T1 sequence (P14151 with tags, fused parts or gaps limits assumed): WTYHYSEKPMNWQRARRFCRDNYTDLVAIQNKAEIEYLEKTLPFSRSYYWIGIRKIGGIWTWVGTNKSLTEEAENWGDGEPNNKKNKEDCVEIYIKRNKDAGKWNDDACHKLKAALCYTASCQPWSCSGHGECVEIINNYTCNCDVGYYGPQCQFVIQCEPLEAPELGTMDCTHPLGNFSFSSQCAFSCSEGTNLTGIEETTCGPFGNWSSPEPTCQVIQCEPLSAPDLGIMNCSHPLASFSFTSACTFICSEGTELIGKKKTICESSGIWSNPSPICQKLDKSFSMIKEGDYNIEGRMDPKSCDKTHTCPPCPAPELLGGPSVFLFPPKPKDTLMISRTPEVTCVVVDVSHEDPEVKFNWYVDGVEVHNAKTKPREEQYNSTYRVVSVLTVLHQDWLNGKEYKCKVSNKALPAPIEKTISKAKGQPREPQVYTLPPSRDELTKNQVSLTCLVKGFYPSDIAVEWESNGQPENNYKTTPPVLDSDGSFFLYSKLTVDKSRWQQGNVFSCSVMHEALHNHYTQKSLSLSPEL

dermatan sulfate [DS]
inhibition of binding between biotinylated versican and L-selectin-Ig (L-selectin-Ig): not inhibited
inhibition of binding between biotinylated versican and P-selectin-Ig (P-selectin-Ig): not inhibited
